From ChEMBL document CHEMBL1152722, “5-Aryl-4-(5-substituted-2,4-dihydroxyphenyl)-1,2,3-thiadiazoles as inhibitors of Hsp90 chaperone” (Bioorg Med Chem Lett, 2009)

Columns and labels:
[1] = tested on: HeLa; experiment: Growth inhibition of human HeLa cells after 72 hrs by XTT assay; format: functional
[2] = tested on: U2OS; experiment: Growth inhibition of human U2OS cells after 72 hrs by XTT assay; format: functional
[3] = biological target: Heat shock protein HSP 90-alpha (Homo sapiens, UniProt P07900)
Description: Binding affinity to human full length Histidine6-tagged Hsp90alpha expressed in Escherichia coli BL21 DE3 by ITC

[4] = biological target: Heat shock protein HSP90 (Homo sapiens, UniProt P07900+P08238)
Description: Binding affinity to human Histidine6-tagged Hsp90alpha N-terminal domain expressed in Escherichia coli BL21 DE3 by ITC

SMILES | GI50 [1] [µM] | GI50 [2] [µM] | Kd [3] [µM] | Kd [4] [µM]
COc1ccc(-c2snnc2-c2cc(Cl)c(O)cc2O)cc1 | 2.5 | 6 | – | –
Cc1ccc(-c2snnc2-c2cc(Cl)c(O)cc2O)cc1 | 3.3 | 7.1 | – | –
COc1ccc(-c2snnc2-c2cc(Cl)c(O)c(Cl)c2O)cc1 | – | – | > 20 | > 20
CCOc1ccc(-c2snnc2-c2cc(CC)c(O)cc2O)cc1 | 0.7 | 0.69 | – | –
COc1ccc(-c2snnc2-c2cc(Cl)c(O)cc2O)cc1OC | 4.2 | 9.9 | – | –
CCOc1ccc(-c2snnc2-c2cc(CC)c(O)c(Cl)c2O)cc1 | 19 | 28 | > 20 | > 20
CCOc1ccc(-c2snnc2-c2cc(Cl)c(O)cc2O)cc1 | 3.6 | 6.9 | – | –
